Two molecules from patent US9156790B2, “Anticancer P21-activated kinase inhibitors” (Ohio State Innovation Foundation, priority 2013, dated 2015) can be followed below.

As usually defined, the IC50 is the midpoint of a concentration-inhibition curve.

Test [1] relates to BCPAP cells. In words: MTT cell viability assay, BCPAP. Format: cell-based, Human. Particulars: Homo sapiens, BCPAP, 72-hours of exposure, 1% FBS, mean±standard deviation (n=3), read-out: IC50 for reducing viability of BCPAP cells versus DMSO control. An excerpt:
(§1) Human thyroid cancer BCPAP, TPC1, and FTC133 cell lines were the generous gifts of Drs. Rebecca Schweppe and Bryan Haugen (University of Colorado Denver) (Schweppe et al., The Journal of clinical endocrinology and metabolism 83:4331-4341 (2008)) with permission from the following originating laboratories: BCPAP—Dr. Fabien, Centre Hospitalier Lyon-Sud, France (Fabien et al., Cancer 73:2206-2212 (1994)); TPC1—Dr. Sato, Kanazawa University, Japan (Tanaka et al., Virology 161:62-411 (1987)); and FTC133—Dr. Goretzki, University of Leipzig, Germany (Goretzki et al., Recent Results Cancer Res 118:48-63 (1990)). The obtained cell lines were confirmed for identity by DNA fingerprinting. BCPAP was grown in RPMI 1640 medium (Life Technologies Co., Carlsbad, Calif.) while FTC133 and TPC1 were grown in DMEM (Life Technologies Co.), both supplemented with 10% fetal bovine serum (FBS) and NEAA unless as noted for experiments.
(§2) The effect of OSU-03012 and its derivatives on cell viability was assessed by using the 3-(4,5-dimethylthiazol-2-yl)-2,5-diphenyl-2H-tetrazolium bromide (MTT) assay. Three replicates were performed in each individual experiment, and experiments were repeated at least three separate times. Cells were grown in 96-well plates for 24 hours and were exposed to various concentrations of drugs dissolved in DMSO (final concentration 0.1%) in RPMI 1640 or DMEM containing 1% FBS for 72 hours. 10 μL of 0.5 mg/ml MTT was added to each well and cells were incubated in CO2 at 37° C. for 2 hours. Supernatants were removed from the wells, the reduced MTT dye was solubilized in 100 μL of solution C (12 ml of 1N HCl in 300 mL of isopropanol), and absorbance at 570 nm was determined on a microplate reader.
(§3) We assessed the ability of the compounds to reduce cell viability in vitro by MTT assay after 72 hours of continuous exposure. Results are shown in Table 1 and are depicted as the IC50 vs. simultaneously performed DMSO control.
(§4) ^aThe reported IC50 values are concentrations at which BCPAP, FTC133 and TPC1 cell viability by MTT assays 50% of DMSO control after 72-hours of exposure. Data are presented as mean±standard deviation (n=3). PAK and PDK1 Selectivity In Vivo
Background: Formazan colour is commonly taken as a measure of viable cells.

Test [2] has as its system FTC133 cells. In words: MTT cell viability assay, FTC133. The format is cell-based, Human. Particulars: Homo sapiens, FTC-133, 72-hours of exposure, 1% FBS, mean±standard deviation (n=3), read-out: IC50 for reducing viability of FTC133 cells versus DMSO control.
Description: as §1, §2, §3, §4

Test [3] has as its target LIMK1 (Homo sapiens, UniProt P53667). Kind of test: Kinase profiling panel: LIMK1. Format: biochemical. Particulars: 5 μM compound; average of triplicate. The method, then: (§5) To further probe the selectivity of the compounds 4 and 15, they were subjected for kinase profiling service for screening against a panel of other kinases selected based on the kinase tree at 5 μM concentration, at or above the IC50 for the two compounds versus PAK in both in vitro and cell-based assays. […] PAK1 was not available for testing using this system thus it was not possible to compare directly in this assay system.

The target of test [4] is PAK2 (Homo sapiens, UniProt Q13177). Kind of test: Kinase profiling panel: PAK2. The note with it: 5 μM compound; average of triplicate. Format: biochemical. The method, then:
as §5

For test [5], the target named is Ret (Homo sapiens, UniProt P07949). In words: Kinase profiling panel: Ret. Format: biochemical. The note with it: 5 μM compound; average of triplicate. The method, then: as §5
Ret, sequence (P07949 29-1114, species assumed): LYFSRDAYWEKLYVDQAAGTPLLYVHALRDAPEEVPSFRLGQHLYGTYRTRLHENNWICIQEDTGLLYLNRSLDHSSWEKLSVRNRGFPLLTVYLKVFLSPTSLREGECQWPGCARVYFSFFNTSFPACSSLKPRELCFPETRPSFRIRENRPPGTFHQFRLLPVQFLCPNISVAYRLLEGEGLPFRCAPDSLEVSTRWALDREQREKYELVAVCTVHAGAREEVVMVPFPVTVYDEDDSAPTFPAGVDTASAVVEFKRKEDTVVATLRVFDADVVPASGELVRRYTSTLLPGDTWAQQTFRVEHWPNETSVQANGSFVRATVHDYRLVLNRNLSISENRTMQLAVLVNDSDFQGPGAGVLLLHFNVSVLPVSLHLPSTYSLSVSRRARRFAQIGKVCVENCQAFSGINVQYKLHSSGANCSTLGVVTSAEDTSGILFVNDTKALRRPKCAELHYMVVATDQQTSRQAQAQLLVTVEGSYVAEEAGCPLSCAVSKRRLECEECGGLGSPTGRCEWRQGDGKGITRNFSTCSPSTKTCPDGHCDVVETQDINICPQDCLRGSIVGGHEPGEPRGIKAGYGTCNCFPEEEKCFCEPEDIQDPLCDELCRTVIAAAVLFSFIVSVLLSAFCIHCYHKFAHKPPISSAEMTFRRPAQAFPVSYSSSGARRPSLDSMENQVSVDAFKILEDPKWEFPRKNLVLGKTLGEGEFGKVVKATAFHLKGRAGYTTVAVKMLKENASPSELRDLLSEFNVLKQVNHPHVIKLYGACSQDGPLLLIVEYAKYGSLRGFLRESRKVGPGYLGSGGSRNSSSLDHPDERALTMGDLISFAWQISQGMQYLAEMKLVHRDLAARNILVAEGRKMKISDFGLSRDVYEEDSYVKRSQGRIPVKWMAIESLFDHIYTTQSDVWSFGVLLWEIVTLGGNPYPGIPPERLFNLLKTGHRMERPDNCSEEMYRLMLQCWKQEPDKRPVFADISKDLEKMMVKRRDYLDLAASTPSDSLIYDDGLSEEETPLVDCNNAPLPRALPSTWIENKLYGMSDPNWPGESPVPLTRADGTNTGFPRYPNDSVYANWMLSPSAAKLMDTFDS
The test system of test [6] is PAK phosphorylation of Vimentin (Ser56). In words: Western blot, PAK phosphorylation of Vimentin (Ser56) in thyroid cancer cells. The format is cell-based, Human. Particulars: for PAK phosphorylation of vimentin (Western blot): 7.5 μM, 6 h, FTC133 and TPC1 cells (FIG. 3); for PAK phosphorylation of vimentin (Western blot) / Dose-dependency of PAK inhibition (Vimentin phosphorylation): BCPAP; for IC50: Homo sapiens, cell-based assays, read-out: IC50 versus PAK, cell-based; for Dose-dependency of PAK inhibition (Vimentin phosphorylation): dose-response, 6 hours, FTC133 and TPC1 cells (FIG. 4A). The method, then:
Protein isolation and Western blot were performed as previously described. Ringel et al., Cancer research 61:6105-6111 (2001). 25 μg of total cell lysates were loaded into 4-12% SDS-PAGE, electrophoresed, and transferred to nitrocellulose membranes for immunoblotting. Primary antibodies against Akt (#9272), phospho-Akt (Thr308) (#2965), p44/42 MAPK (Erk1/2) (#9107), phospho-p44/42 MAPK (Erk1/2) (Thr202/Tyr204) (#4377) and GAPDH (#2118) were obtained from Cell Signaling Technology (Danvers, Mass., USA). Antibody against Vimentin (V6630) and phospho-Ser55 Vimentin were from Sigma-Aldrich, Inc. (St. Louis, Mo.) and MBL Co. (Nagoya, Japan), respectively. Antibodies against total and phosphorylated S6 were from Cell Signaling Technology®.
The ability of the compounds with in vitro anti-PAK1 activity was assessed for activity […] in thyroid cancer cells. In addition, because the compounds are based on the structure of a PDK1 inhibitor, PDK1 inhibitory activity was also assessed. Inhibitory activity in cells was estimated using Western blot with primary antibodies directed against kinase-specific phosphorylation sites; serine 56 of vimentin for PAK and threonine 308 of Akt for PDK1. BCPAP, TPC1, and FTC133 thyroid cancer cells were utilized. BCPAP and TPC1 are derived from PTC and have BRAF V600E and RET/PTC1 rearrangements, respectively. FTC133 is derived from a follicular thyroid cancer with an inactivating mutation of PTEN. Similar to the kinase screening assay, cells were treated with the six compounds or OSU-03012 at 7.5 μM concentration or with DMSO vehicle alone. The results were not entirely consistent across the three cell lines presumably related to mutation status or other factors. OSU-03012 inhibited both PDK1 and PAK-mediated phosphorylation of targets as predicted.
The dose-dependency of compounds 4 and 15 was next assessed (FIG. 4). […] Due to the important role that ERK activation plays in thyroid cancer, and its signaling activation by thyroid oncogenes, the effects of the compounds on ERK phosphorylation was also assessed.
Background: A western blot detects proteins with antibodies after separation by electrophoresis.

PAK2, sequence (Q13177 whole entry, species assumed): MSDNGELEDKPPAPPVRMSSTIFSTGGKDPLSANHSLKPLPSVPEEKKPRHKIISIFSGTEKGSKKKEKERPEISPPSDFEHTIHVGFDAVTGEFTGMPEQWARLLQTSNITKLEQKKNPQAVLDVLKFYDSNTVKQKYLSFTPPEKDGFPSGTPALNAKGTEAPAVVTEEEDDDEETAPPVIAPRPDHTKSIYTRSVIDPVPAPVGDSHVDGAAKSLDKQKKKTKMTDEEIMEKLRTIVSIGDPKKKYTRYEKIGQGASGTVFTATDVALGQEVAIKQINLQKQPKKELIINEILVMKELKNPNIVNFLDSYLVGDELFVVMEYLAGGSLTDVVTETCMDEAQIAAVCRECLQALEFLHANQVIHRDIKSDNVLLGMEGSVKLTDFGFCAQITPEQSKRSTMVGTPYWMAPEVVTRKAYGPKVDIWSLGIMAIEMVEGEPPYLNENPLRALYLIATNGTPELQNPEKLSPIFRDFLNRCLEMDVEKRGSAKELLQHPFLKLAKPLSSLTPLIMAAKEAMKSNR
LIMK1, sequence (P53667 whole entry, species assumed): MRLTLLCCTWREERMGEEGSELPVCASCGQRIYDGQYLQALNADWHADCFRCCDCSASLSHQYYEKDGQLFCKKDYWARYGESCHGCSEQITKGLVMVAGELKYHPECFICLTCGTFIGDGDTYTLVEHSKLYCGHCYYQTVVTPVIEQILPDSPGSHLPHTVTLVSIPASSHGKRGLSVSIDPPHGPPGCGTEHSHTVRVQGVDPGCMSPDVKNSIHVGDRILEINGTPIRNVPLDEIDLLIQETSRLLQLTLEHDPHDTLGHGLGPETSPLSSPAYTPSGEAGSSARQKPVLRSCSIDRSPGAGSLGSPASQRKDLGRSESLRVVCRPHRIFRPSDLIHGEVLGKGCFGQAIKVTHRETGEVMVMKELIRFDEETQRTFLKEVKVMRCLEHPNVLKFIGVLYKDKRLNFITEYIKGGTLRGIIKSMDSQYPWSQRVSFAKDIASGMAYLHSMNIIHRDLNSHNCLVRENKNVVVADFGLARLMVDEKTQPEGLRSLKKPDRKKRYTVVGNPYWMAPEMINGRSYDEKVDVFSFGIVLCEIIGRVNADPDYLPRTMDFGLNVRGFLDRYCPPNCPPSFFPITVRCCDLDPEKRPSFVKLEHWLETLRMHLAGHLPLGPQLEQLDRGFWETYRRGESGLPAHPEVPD

Regarding `NCCC(=O)Nc1ccc(-n2nc(C(F)(F)F)cc2-c2ccc3ccc4ccccc4c3c2)cc1` [Compound 4, 3-amino-N-(4-(5-(phenanthren-3-yl)-3-(trifluoromethyl)-1H-pyrazol-1-yl)phenyl)-propanamide], the 50% inhibitory concentration (IC50) in test [1] turned out to be 2070 ± 60 nM. Besides, the IC50 in test [2] came out at 2680 ± 2080 nM. Also, in test [3], the “% activity vs. DMSO, LIMK1” value is reported as 130%. The “% activity vs. DMSO, PAK2” value in test [4] worked out at 70%. The “% activity vs. DMSO, Ret” value in test [5] is 97%. Also, in test [6], the “PAK phosphorylation of vimentin (Western blot)” value is “inhibited PAK”, the IC50 is at most 5000 nM and the “Dose-dependency of PAK inhibition (Vimentin phosphorylation)” value is given as “inhibited PAK1 in a dose dependent manner”.

With `CC(C)NC(=O)c1cc(-c2ccc3ccc4ccccc4c3c2)n(-c2ccc(NC(=O)CN)cc2)n1` [Compound 15, 1-(4-(2-Aminoacetamido)phenyl)-N-isopropyl-5-(phenanthren-3-yl)-1H-pyrazole-3-carboxamide], in test [1], the concentration for half-maximal inhibition (IC50) turned out to be 1490 ± 680 nM. Besides, in test [2], the IC50 came to 3370 ± 3310 nM. For the same molecule, the “% activity vs. DMSO, LIMK1” value in test [3] turned out to be 117%. For the same molecule, the “% activity vs. DMSO, PAK2” value in test [4] came out at 81%. In addition, the “% activity vs. DMSO, Ret” value in test [5] came to 76%. Moreover, in test [6], the “PAK phosphorylation of vimentin (Western blot)” value is “inhibited PAK”, the IC50 is at most 5000 nM and the “Dose-dependency of PAK inhibition (Vimentin phosphorylation)” value is on record as “inhibited PAK1 in a dose dependent manner”.
